Experimental data reported in patent publication US20220296595A1, “CDK INHIBITORS” (QILU REGOR THERAPEUTICS INC., priority 2019, published 2022).

Columns and labels:
CDK4/CyclinD1 = molecular target: T1, CDK4/CyclinD1 (Homo sapiens, UniProt P11802); assay: Assay for inhibition of CDK4/CyclinD1 (Caliper microfluidic kinase assay); format: biochemical; details: CDK4/CyclinD1, 200 μM ATP
T1 construct: purchased Thermofisher PR8064A
Summary of the method: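 IC50 was obtained by 4-parameter sigmoidal fitting after 1 nM CDK4/CyclinD1, 200 μM ATP and 1 μM FL-34 substrate reacted for 3 h at room temperature (pH 7.5 HEPES, 10 mM MgCl2). After EDTA quench, substrate and product were separated and detected on a Caliper microfluidic chip.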

CDK6/CyclinD3 = molecular target: T2, CDK6/CyclinD3 (Homo sapiens, UniProt Q00534); assay: Assay for inhibition of CDK6/CyclinD3 (Caliper microfluidic kinase assay); format: biochemical; details: CDK6/CyclinD3, 300 μM ATP
T2 construct: purchased Carna 04-107
Summary of the method: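 IC50s came from four-parameter dose-response fits of microfluidic substrate/product separation data. Reactions held 2 nM CDK6/CyclinD3, 300 μM ATP and 1 μM 5-FAM peptide FL-34 in pH 7.5 HEPES/MgCl2 buffer, ran 3 hours at room temperature, then were quenched with EDTA.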

CDK2/CyclinE1 = molecular target: T3, CDK2/CyclinE1 (Homo sapiens, UniProt P24941); assay: Assay for inhibition of CDK2/CyclinE1 (Caliper microfluidic kinase assay); format: biochemical; details: CDK2/CyclinE1, 100 μM ATP; read-out: CDK2 IC50
T3 construct: purchased SignalChem C29-18G
Summary of the method: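 IC50 came from 4-parameter fits of substrate-to-product conversion, separated on a Caliper chip after an EDTA stop. Reactions ran 3 hours at room temperature with 100 μM ATP, 5 μM fluorescent FL-18 peptide and 5 nM enzyme in 100 mM HEPES pH 7.5, 10 mM MgCl2.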

T47D breast cancer cells = assay: Anti-proliferation assay in T47D cell (Cyquant, day 6); format: cell-based, human; details: Homo sapiens, T47D, anti-proliferation, T47D cells; read-out: T47D IC50
Summary of the method: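 A ten-point, 3-fold compound series (10 μM down to 0.51 nM) was applied to overnight-settled cells in 10% FBS RPMI 1640, and DNA content was read by CyQuant fluorescence 6 days later. An untreated plate read before dosing served as baseline for subtraction before IC50 fitting.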

[1] = test system: phosphorylation of Retinoblastoma Protein (pRb Ser807/811 or Ser780) in T47D cells; assay: Inhibition of phosphorylation of retinoblastoma protein (pRb) in T47D cell (ELISA); format: cell-based, human; details: Homo sapiens, T47D, read-out: Phospho T47D Ser807 IC50, pRb Ser807 phosphorylation, T47D cells
Summary of the method: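 T47D cells in RPMI 1640 + 10% FBS, adhered overnight, then treated 24 h with 3-fold compound titrations (top concentration […]). Lysates assayed by sandwich ELISA for pRb Ser807/811 or Ser780 with HRP/TMB detection. IC50 from 4-parameter sigmoidal fit.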

T2 sequence (Q00534 whole entry): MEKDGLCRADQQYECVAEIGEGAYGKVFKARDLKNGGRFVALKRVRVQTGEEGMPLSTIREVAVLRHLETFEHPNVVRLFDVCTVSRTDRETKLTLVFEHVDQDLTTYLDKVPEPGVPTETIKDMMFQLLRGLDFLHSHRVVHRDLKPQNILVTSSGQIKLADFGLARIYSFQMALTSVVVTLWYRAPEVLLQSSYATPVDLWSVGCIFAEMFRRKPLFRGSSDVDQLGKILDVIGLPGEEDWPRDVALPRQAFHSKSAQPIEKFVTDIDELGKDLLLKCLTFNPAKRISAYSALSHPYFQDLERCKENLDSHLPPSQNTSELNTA
T2 sequence (P30281 whole entry partner): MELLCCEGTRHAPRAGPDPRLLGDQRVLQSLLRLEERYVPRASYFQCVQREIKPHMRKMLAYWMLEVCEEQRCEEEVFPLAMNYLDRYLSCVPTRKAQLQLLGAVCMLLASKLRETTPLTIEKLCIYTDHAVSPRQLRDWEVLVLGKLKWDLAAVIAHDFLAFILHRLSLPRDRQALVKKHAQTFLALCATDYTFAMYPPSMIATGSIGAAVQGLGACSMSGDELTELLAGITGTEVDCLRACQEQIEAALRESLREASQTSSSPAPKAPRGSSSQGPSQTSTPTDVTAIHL
T1 sequence (P11802 whole entry): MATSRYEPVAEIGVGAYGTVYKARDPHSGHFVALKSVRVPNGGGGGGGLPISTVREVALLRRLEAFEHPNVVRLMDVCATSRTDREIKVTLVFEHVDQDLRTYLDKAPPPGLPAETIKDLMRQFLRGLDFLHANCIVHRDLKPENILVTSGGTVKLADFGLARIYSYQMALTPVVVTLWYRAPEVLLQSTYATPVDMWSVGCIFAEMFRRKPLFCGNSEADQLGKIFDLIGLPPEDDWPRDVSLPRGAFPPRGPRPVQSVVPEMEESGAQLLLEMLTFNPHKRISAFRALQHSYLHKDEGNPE
T1 sequence (P24385 whole entry partner): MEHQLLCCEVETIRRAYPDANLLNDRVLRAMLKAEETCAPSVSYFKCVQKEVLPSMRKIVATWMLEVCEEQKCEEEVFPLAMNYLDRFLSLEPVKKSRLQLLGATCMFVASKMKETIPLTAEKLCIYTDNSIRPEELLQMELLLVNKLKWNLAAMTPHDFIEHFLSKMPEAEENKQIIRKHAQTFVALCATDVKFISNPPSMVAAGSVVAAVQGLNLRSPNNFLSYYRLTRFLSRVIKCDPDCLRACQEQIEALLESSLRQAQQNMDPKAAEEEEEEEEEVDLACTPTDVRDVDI

| SMILES | IC50 (CDK4/CyclinD1) [nM] | IC50 (CDK6/CyclinD3) [nM] | IC50 (CDK2/CyclinE1) [nM] | IC50 (T47D breast cancer cells) [nM] | IC50 [1] [nM] |
| --- | --- | --- | --- | --- | --- |
| CC(C)c1cnn2ccc(-c3ccnc(Nc4ccc(N5CCC(N6CC(F)C6)CC5=O)cn4)n3)cc12 (stereo not drawn) [compound 162] | < 10 | 10 to 100 | 10 to 100 | < 100 | < 100 |
| CC(C)c1cnn2ccc(-c3ccnc(Nc4ccc(N5CCNC5=O)cn4)n3)cc12 [compound 163] | < 10 | 10 to 100 | 10 to 100 | < 100 | < 100 |
| CC(C)c1cnn2ccc(-c3ccnc(Nc4ccc(N5CCOCC5=O)cc4F)n3)cc12 [compound 164] | < 10 | 10 to 100 | < 10 | < 100 | < 100 |
| CC(C)c1cnn2ccc(-c3ccnc(Nc4ccc(S(N)(=O)=O)cc4)n3)cc12 [compound 165] | 10 to 100 | 100 to 1000 | < 10 | < 100 | 100 to 500 |
| CNC(=O)c1ccc(Nc2nccc(-c3ccn4ncc(C(C)C)c4c3)n2)cc1 [compound 166] | < 10 | 10 to 100 | < 10 | < 100 | < 100 |
| CC(C)c1cnn2ccc(-c3ccnc(Nc4ccc(C(=O)N(C)C)cc4)n3)cc12 [compound 167] | < 10 | 10 to 100 | < 10 | < 100 | < 100 |
| CC(C)c1cnn2ccc(-c3ccnc(Nc4ccc(C(N)=O)cc4)n3)cc12 [compound 168] | < 10 | 10 to 100 | < 10 | < 100 | < 100 |
| CC(C)c1cnn2ccc(-c3ccnc(Nc4ccc(N5CCC(N6CCC6)CC5=O)cn4)n3)cc12 (stereo not drawn) [compound 171] | < 10 | 10 to 100 | < 10 | < 100 | < 100 |
| CC(C)c1cnn2ccc(-c3ccnc(Nc4ccc(N5CCC(N(C)C)CC5=O)cc4)n3)cc12 (stereo not drawn) [compound 172] | < 10 | < 10 | < 10 | < 100 | < 100 |
| CC(C)c1cnn2ccc(-c3ccnc(Nc4ccc(N5CCCNC5=O)cc4)n3)cc12 [compound 173] | < 10 | < 10 | 10 to 100 | < 100 | < 100 |
| CCN(CC)C1CCN(c2ccc(Nc3nccc(-c4ccn5ncc(C(C)C)c5c4)n3)nc2)C(=O)C1 (stereo not drawn) [compound 176] | < 10 | 10 to 100 | 10 to 100 | < 100 | < 100 |
| CC(C)c1cnn2ccc(-c3ccnc(Nc4ccc(N5CCC=CC5=O)cn4)n3)cc12 [compound 184] | < 10 | 10 to 100 | 10 to 100 | < 100 | < 100 |
| CC(C)c1cnn2ccc(-c3ccnc(Nc4ccc(C(=O)N5CCC(NC6CC6)C5)cc4)n3)cc12 (stereo not drawn) [compound 191] | < 10 | 10 to 100 | < 10 | < 100 | < 100 |
| Cc1nn2ccc(-c3ccnc(Nc4ccc(N5CCNCC5=O)cn4)n3)cc2c1C(C)C [compound 192] | < 10 | 10 to 100 | 10 to 100 | < 100 | < 100 |
| CC1CC(=O)N(c2ccc(Nc3ncc(F)c(-c4ccn5ncc(C(C)C)c5c4)n3)nc2)CCN1 (stereo not drawn) [compound 193] | < 10 | 10 to 100 | 10 to 100 | < 100 | < 100 |
| CC1CN(c2ccc(Nc3ncc(F)c(-c4ccn5ncc(C(C)C)c5c4)n3)nc2)C(=O)CCN1 (stereo not drawn) [compound 194] | < 10 | 10 to 100 | 10 to 100 | 100 to 500 | < 100 |
| O=C1CCNCCN1c1ccc(Nc2ncc(F)c(-c3ccn4ncc(C5CC5)c4c3)n2)nc1 [compound 195] | < 10 | 10 to 100 | 100 to 1000 | < 100 | < 100 |
| CC(C)c1cnn2ccc(-c3ccnc(Nc4ccc(N5CCC(C)(N)CC5=O)cn4)n3)cc12 (stereo not drawn) [compound 196] | < 10 | 10 to 100 | < 10 | < 100 | < 100 |

| SMILES | IC50 (CDK4/CyclinD1) [nM] | IC50 (CDK6/CyclinD3) [nM] | IC50 (CDK2/CyclinE1) [nM] | IC50 (T47D breast cancer cells) [nM] | IC50 [1] [nM] |
| --- | --- | --- | --- | --- | --- |
| CC(C)(C)c1cnn2ccc(-c3ccnc(Nc4ccc(N5CCNCCC5=O)cn4)n3)cc12 [compound 197] | < 10 | 10 to 100 | 10 to 100 | < 100 | < 100 |
| CC(C)c1cnn2ccc(-c3nc(Nc4ccc(N5C(=O)CC6CC5CN6)cn4)ncc3F)cc12 (stereo not drawn) [compound 198] | < 10 | 10 to 100 | 10 to 100 | < 100 | < 100 |
| CC(C)c1cnn2ccc(-c3nc(Nc4ccc(N5CC6CCC(CC5=O)N6)cn4)ncc3F)cc12 (stereo not drawn) [compound 199] | < 10 | < 10 | 10 to 100 | < 100 | < 100 |
| CC(C)c1cnn2ccc(-c3ccnc(Nc4ccc(N5CCC(N6CCNCC6)CC5=O)cn4)n3)cc12 (stereo not drawn) [compound 200] | < 10 | 10 to 100 | 10 to 100 | < 100 | < 100 |
| CC(C)c1cnn2ccc(-c3ccnc(Nc4ccc(N5CCC(C)(N)CC5=O)cc4)n3)cc12 (stereo not drawn) [compound 202] | < 10 | < 10 | < 10 | < 100 | < 100 |
| CC(C)c1cnn2ccc(-c3ccnc(Nc4ccc(N5CCC(N)CC5=O)cn4)n3)cc12 (stereo not drawn) [compound 203] | < 10 | 10 to 100 | < 10 | < 100 | < 100 |
| CC(C)c1cnn2ccc(-c3ccnc(Nc4ccc(N5CCCC(N)C5=O)cn4)n3)cc12 (stereo not drawn) [compound 207] | < 10 | < 10 | 10 to 100 | < 100 | < 100 |
| CC(C)c1cnn2ccc(-c3ccnc(Nc4ccc(N5CCCC(N)C5=O)cc4)n3)cc12 (stereo not drawn) [compound 214] | < 10 | < 10 | < 10 | < 100 | < 100 |
| CC(C)c1cnn2ccc(-c3ccnc(Nc4ccc(N5CCN(C6COC6)CC5=O)cn4)n3)cc12 [compound 234] | < 10 | 10 to 100 | 10 to 100 | < 100 | < 100 |
| CCN1CCN(c2ccc(Nc3nccc(-c4ccn5ncc(C(C)C)c5c4)n3)nc2)C(=O)C1 [compound 235] | < 10 | 10 to 100 | 10 to 100 | < 100 | < 100 |
| CC(C)c1cnn2ccc(-c3ccnc(Nc4ccc(N5CCN(S(C)(=O)=O)CCC5=O)cn4)n3)cc12 [compound 236] | < 10 | < 10 | 10 to 100 | < 100 | < 100 |
| CC(C)c1cnn2ccc(-c3ccnc(Nc4ccc(N5CCN(CCO)CC5=O)cn4)n3)cc12 [compound 237] | < 10 | 10 to 100 | 10 to 100 | < 100 | < 100 |
| CC(C)n1cnc2c1CN(c1ccnc(Nc3ccc(N4CCCNC4=O)cn3)n1)CC2 [compound 242] | < 10 | 10 to 100 | 100 to 1000 | 500 to 1000 | < 100 |
| CC(C)n1cnc2c1CN(c1ccnc(Nc3ccc(N4CCC(C)(N)CC4=O)cn3)n1)CC2 (stereo not drawn) [compound 244] | < 10 | 100 to 1000 | 10 to 100 | 500 to 1000 | 500 to 1000 |
| CC(C)n1cnc2c1CN(c1ccnc(Nc3ccc(N4CCC(N(C)C)CC4=O)cn3)n1)CC2 (stereo not drawn) [compound 245] | < 10 | 100 to 1000 | 10 to 100 | 500 to 1000 | 100 to 500 |
| CC1(N)CCN(c2ccc(Nc3nccc(-c4cc(F)c5c(c4)C(C)(C)CO5)n3)nc2)C(=O)C1 (stereo not drawn) [compound 258] | < 10 | 10 to 100 | 10 to 100 | < 100 | < 100 |
| CN(C)C1CCN(c2ccc(Nc3nccc(-c4cc(F)c5c(c4)C(C)(C)CO5)n3)nc2)C(=O)C1 (stereo not drawn) [compound 259] | < 10 | 10 to 100 | 10 to 100 | < 100 | < 100 |
| CC(C)n1cnc2c(F)nc(-c3ccnc(Nc4ccc(N5CCC(N(C)C)CC5=O)cn4)n3)cc21 (stereo not drawn) [compound 270] | < 10 | < 10 | 10 to 100 | < 100 | < 100 |
